Literature values as cited in patent publication US6306425A, “Injectable naltrexone microsphere compositions and their use in reducing consumption of heroin and alcohol” (Southern Research Institute, priority 2000, dated 2001).

O=C1CC[C@@]2(O)[C@H]3Cc4ccc(O)c5c4[C@@]2(CCN3CC2CC2)[C@H]1O5 [naltrexone]
Control of amount of alcohol consumed and number of binges (alcoholics): serves to enhance the control of the alcoholic in the amount of alcohol consumed and the number of binges | Safety (administered levels in excess of those of the subject compositions): found to be safe | Hepatotoxicity (high dosages): some reports of hepatotoxicity | Population with adverse reactions (oral naltrexone): about 10%
